The values below come from US20250034170A1, “SMALL MOLECULE MODULATORS OF GLUCOCEREBROSIDASE ACTIVITY AND USES THEREOF” (Vanqua Bio, Inc., priority 2021, published 2025).

Some results are limits rather than exact numbers.

The term EC50 denotes the concentration that produces a half-maximal response. Read a low EC50 as higher potency in that assay.

The target in the assay is T1, GCase (Homo sapiens, UniProt P04062).
T1 construct: endogenous in cells; host or cells: HeLa cells
T1 sequence (P04062 40-536): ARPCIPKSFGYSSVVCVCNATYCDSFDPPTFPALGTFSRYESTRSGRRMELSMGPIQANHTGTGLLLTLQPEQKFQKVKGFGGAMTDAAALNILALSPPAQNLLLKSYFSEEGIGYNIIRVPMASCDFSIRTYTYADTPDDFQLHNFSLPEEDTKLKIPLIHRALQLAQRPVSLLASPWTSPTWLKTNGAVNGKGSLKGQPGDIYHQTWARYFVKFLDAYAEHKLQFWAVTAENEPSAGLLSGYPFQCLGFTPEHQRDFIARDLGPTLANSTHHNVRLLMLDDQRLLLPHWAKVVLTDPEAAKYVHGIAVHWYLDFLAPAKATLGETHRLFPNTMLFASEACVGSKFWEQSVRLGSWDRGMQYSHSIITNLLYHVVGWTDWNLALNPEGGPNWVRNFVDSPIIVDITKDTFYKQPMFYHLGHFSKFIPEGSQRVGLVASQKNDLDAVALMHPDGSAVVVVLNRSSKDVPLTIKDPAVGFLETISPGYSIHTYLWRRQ
Kind of assay: activation of GCase in a live cell PFB assay in HELA cells. The format is cell-based. The note with it: activation of GCase, EC50 ranges. The protocol: Exemplary compounds were evaluated for activation of GCase in a live cell PFB assay in HELA cells (essentially as described in Ysselstein et al., “LRRK2 kinase activity regulates lysosomal glucocerebrosidase in neurons derived from Parkinson's disease patients” Nature Communications (2019) 10:5570). […] EC50 ranges: A: <10 μM; B: >10-50 μM; C: >50-100 μM; D: >100 μM.
Consider `FC(F)(F)c1ccc(N2CCC3(CCN(c4cncc(C(F)(F)F)n4)CC3)C2)cn1` [Cmpd 255], for which the EC50 is < 10 µM. With `FC(F)(F)c1ccc(N2CCC3(CCN(c4cncc(N5CCCCC5)n4)CC3)C2)cn1` [Cmpd 256], the 50% effective concentration (EC50) is < 10 µM. For `Cc1nn(CC(F)F)c2nc(N3CCC4(CCN(c5ccc(C(F)(F)F)nc5)C4)CC3)cnc12` [Cmpd 257], the concentration for a half-maximal effect (EC50) was < 10 µM. The figure for `Cc1nn(CC(F)F)c2nc(N3CCC4(CC3)CC(=O)N(c3ccc(C(F)(F)F)nc3)C4)cnc12` [Cmpd 258] is < 10 µM; for `FC(F)Cn1ncc2ncc(N3CCC4(CC3)CN(c3cc(C(F)(F)F)ccn3)c3ccccc34)nc21` [Cmpd 259] it is 10 to 50 µM; for `Cc1nn(CC(F)F)c2nc(N3CCC4(CC3)CCN(c3ccc(C(F)(F)F)nc3)C4=O)cnc12` [Cmpd 260] it is < 10 µM. With `O=C1N(c2ccc(C(F)(F)F)nc2)c2ccccc2C12CCN(c1cnc3cnn(CC(F)F)c3n1)CC2` [Cmpd 261] the figure was 10 to 50 µM; with `CCc1nccn1-c1cncc(N2CCC3(CC2)CCN(c2cc(C(F)(F)F)ccn2)C3=O)n1` [Cmpd 262], < 10 µM; with `CCc1nccn1-c1cncc(N2CCC3(CCN(c4ccc(C(F)(F)F)nc4)C3)CC2)n1` [Cmpd 263], < 10 µM. In the case of `O=C1N(c2cc(C(F)(F)F)ccn2)CCC12CCN(c1nccn3cncc13)CC2` [Cmpd 264], the EC50 was > 100 µM.

In turn, `CC1CC2(CCN(c3cnc4cnn(CC(F)F)c4n3)CC2)CN1c1ccc(C(F)(F)F)nc1` (stereo not drawn) [Cmpd 265] came in with an EC50 of 10 to 50 µM. Regarding `FC(F)Cn1ncc2ncc(N3CCC4(CCN(c5ccc(C(F)(F)F)nc5)C4)C(F)(F)C3)nc21` (stereo not drawn) [Cmpd 266], the EC50 was < 10 µM.

Regarding `Cc1cccc(-c2noc(C)c2C(=O)N2CCC3(CC2)CCN(c2cc(C(F)(F)F)ccn2)C3=O)c1` [Cmpd 267], the EC50 is 10 to 50 µM. The compound `Cc1cc(F)cc(-n2cc(C(=O)N3CCC4(CC3)CCN(c3cc(C(F)(F)F)ccn3)C4=O)nn2)c1` [Cmpd 268] had an EC50 of 10 to 50 µM.

As to `O=C(c1nc2ccccc2cc1C1CC1)N1CCC2(CC1)CCN(c1cc(C(F)(F)F)ccn1)C2=O` [Cmpd 269], the EC50 lay within 10 to 50 µM. With `Cc1cn(-c2ccccc2)nc1C(=O)N1CCC2(CC1)CCN(c1cc(C(F)(F)F)ccn1)C2=O` [Cmpd 270] the figure was 10 to 50 µM.

Compound `Cc1nn(CC(F)F)c2nc(N3CCC4(CC3)CCN(c3cncc(C(F)(F)F)n3)C4=O)cnc12` [Cmpd 271] registered a concentration giving a half-maximal response (EC50) of 10 to 50 µM.

On to `O=C1N(c2cncc(C(F)(F)F)n2)CCC12CCN(c1cnc3cnn(CC(F)(F)F)c3n1)CC2` [Cmpd 272], for which the EC50 was 10 to 50 µM. In the case of `O=C1N(c2cc(C(F)(F)F)ccn2)CCC12CCN(c1cnc3cnn(C4COC4)c3n1)CC2` [Cmpd 273], the concentration for a half-maximal effect (EC50) was in the range of 10 to 50 µM.

As for `O=C1CC2(CCN(c3cnc4cnn(CC(F)F)c4n3)CC2)CN1c1cncc(C(F)(F)F)n1` [Cmpd 274], the half-maximal effective concentration (EC50) is < 10 µM.

Turning to `O=C1CC2(CCN(c3cnc4cnn(CC(F)F)c4n3)CC2)CN1c1nccc(C(F)(F)F)n1` [Cmpd 275], the EC50 is < 10 µM. With `O=C1N(c2cncc(C(F)(F)F)n2)CCC12CCN(c1cnc3cnn(C4COC4)c3n1)CC2` [Cmpd 276] the figure was 10 to 50 µM; with `O=C1CC2(CCN(c3cnc4cnn(C5COC5)c4n3)CC2)CN1c1cncc(C(F)(F)F)n1` [Cmpd 277], 10 to 50 µM.

Turning to `O=C1N(c2nccc(C(F)(F)F)n2)CCC12CCN(c1cnc3cnn(C4COC4)c3n1)CC2` [Cmpd 278], the half-maximal effective concentration (EC50) was < 10 µM. With `O=C1CC2(CCN(c3cnc4cnn(C5COC5)c4n3)CC2)CN1c1nccc(C(F)(F)F)n1` [Cmpd 279] the figure was < 10 µM; with `Cc1nn(CC(F)F)c2nc(N3CCC4(CC3)CC(=O)N(c3cncc(C(F)(F)F)n3)C4)cnc12` [Cmpd 280], 10 to 50 µM.

In the case of `Cc1nn(CC(F)F)c2nc(N3CCC4(CC3)CCN(c3nccc(C(F)(F)F)n3)C4=O)cnc12` [Cmpd 281], the EC50 is < 10 µM. With `Cc1nn(CC(F)F)c2nc(N3CCC4(CC3)CC(=O)N(c3nccc(C(F)(F)F)n3)C4)cnc12` [Cmpd 282] the figure was < 10 µM.

As to `Cc1nn(CC(F)F)c2nc(N3CCC4(CC3)CC(=O)N(c3cc(C(F)(F)F)ccn3)C4)cnc12` [Cmpd 283], the EC50 was < 10 µM.

Compound `O=C1CC2(CCN(c3cnc4cnn(C5COC5)c4n3)CC2)CN1c1cc(C(F)(F)F)ccn1` [Cmpd 284] registered a 50% effective concentration (EC50) of 50 to 100 µM. `O=C1N(c2cc(C(F)(F)F)ccn2)CCC12CCN(c1ncc3cnn(CC(F)F)c3n1)CC2` [Cmpd 285] showed an EC50 of 10 to 50 µM.

On to `O=C1CC2(CCN(c3ncc4cnn(CC(F)F)c4n3)CC2)CN1c1cc(C(F)(F)F)ccn1` [Cmpd 286], for which the EC50 was < 10 µM. `O=C1N(c2cncc(C(F)(F)F)n2)CCC12CCN(c1ncc3cnn(CC(F)F)c3n1)CC2` [Cmpd 287]: the 50% effective concentration (EC50) was > 100 µM. The figure for `O=C1CC2(CCN(c3ncc4cnn(CC(F)F)c4n3)CC2)CN1c1cncc(C(F)(F)F)n1` [Cmpd 288] is 10 to 50 µM; for `O=C1N(c2nccc(C(F)(F)F)n2)CCC12CCN(c1ncc3cnn(CC(F)F)c3n1)CC2` [Cmpd 289] it is 10 to 50 µM; for `O=C1CC2(CCN(c3ncc4cnn(CC(F)F)c4n3)CC2)CN1c1nccc(C(F)(F)F)n1` [Cmpd 290] it is < 10 µM.

For `O=C1N(c2ccc(C(F)(F)F)nc2)C(c2ccccc2)CC12CCN(c1cnc3cnn(CC(F)F)c3n1)CC2` (stereo not drawn) [Cmpd 291], the half-maximal effective concentration (EC50) is < 10 µM.

`O=C1CC2(CCN(c3cnc4cnn(CC(F)F)c4n3)CC2)CCN1c1ccc(C(F)(F)F)cn1` [Cmpd 293] yielded an EC50 of 10 to 50 µM. The figure for `O=C1CCC2(CCN(c3cnc4cnn(CC(F)F)c4n3)CC2)CN1c1ccc(C(F)(F)F)cn1` [Cmpd 294] is 10 to 50 µM; for `FC(F)Cn1ncc2cnc(N3CCC4(CN(c5ccnc(C(F)(F)F)c5)C4)C3)nc21` [Cmpd 295] it is 10 to 50 µM.

Regarding `Cc1nn(CC(F)F)c2nc(N3CCC4(CN(c5ccnc(C(F)(F)F)c5)C4)C3)ncc12` [Cmpd 296], the half-maximal effective concentration (EC50) was < 10 µM. With `COc1nc(N2CCC3(CN(c4ccnc(C(F)(F)F)c4)C3)C2)nc2c1cnn2CC(F)F` [Cmpd 297] the figure was 10 to 50 µM; with `FC(F)Cn1ncc2ncc(N3CCC4(CN(c5cncc(C(F)(F)F)n5)C4)C3)nc21` [Cmpd 298], > 100 µM. On to `FC(F)Cn1ncc2ncc(N3CCC4(C3)CN(c3nccc(C(F)(F)F)n3)C4)nc21` [Cmpd 299], for which the EC50 lay in the range of 10 to 50 µM. The figure for `CC(C)N1C(=O)N(c2cc(C(F)(F)F)ccn2)C(=O)C12CN(c1cnc3cnn(CC(F)F)c3n1)C2` [Cmpd 300] is 50 to 100 µM.

Take `Cc1nn(CC(F)F)c2nc(N3CCC4(CC3)CCN(c3cc(C(F)(F)F)ccn3)C4=O)ncc12` [Cmpd 301]: the EC50 is 10 to 50 µM. Regarding `Cc1nn(CC(F)F)c2nc(N3CCC4(CC3)CC(=O)N(c3cc(C(F)(F)F)ccn3)C4)ncc12` [Cmpd 302], the concentration for a half-maximal effect (EC50) is < 10 µM.

With `COc1nc(N2CCC3(CC2)CCN(c2cc(C(F)(F)F)ccn2)C3=O)nc2c1cnn2CC(F)F` [Cmpd 303], the concentration giving a half-maximal response (EC50) is < 10 µM. With `COc1nc(N2CCC3(CC2)CC(=O)N(c2cc(C(F)(F)F)ccn2)C3)nc2c1cnn2CC(F)F` [Cmpd 304], the concentration giving a half-maximal response (EC50) is < 10 µM. For the compound `O=C1CC2(CCN(c3cnc4cnn(CC(F)F)c4n3)CC2)CN1c1cnc(C(F)(F)F)nc1` [Cmpd 305], the EC50 was in the range of 10 to 50 µM. `O=C1N(c2cnc(C(F)(F)F)nc2)CCC12CCN(c1cnc3cnn(CC(F)F)c3n1)CC2` [Cmpd 306] gave an EC50 of 10 to 50 µM.
